In US11001829B2, “Functional screening with optimized functional CRISPR-Cas systems” (The Broad Institute, Inc., priority 2014, dated 2021):

Key:
[1] = test system: Factor VII; conditions: LNP siRNA systems containing the lipid; cited from earlier work
[2] = test system: A375 melanoma cell line (BRAF V600E); conditions: cited from earlier work
[3] = test system: DNA; assay: indel formation by double nicking with sgRNA pairs; type: cell-based; conditions: substitution of Cas9n in a given sgRNA pair
Excerpt: Aspects of the invention relate to the expression of the gene product being decreased or a template polynucleotide being further introduced into the DNA molecule encoding the gene product or an intervening sequence being excised precisely by allowing the two 5′ overhangs to reanneal and ligate or the activity or function of the gene product being altered or the expression of the gene product being increased. In an embodiment of the invention, the gene product is a protein. Only sgRNA pairs creating 5′ overhangs with less than 8 bp overlap between the guide sequences (offset greater than −8 bp) were able to mediate detectable indel formation. […] Nonetheless, a pair of sgRNAs that will generate a 5′ overhang with Cas9n should in principle generate the corresponding 3′ overhang instead, and double nicking. […] Accordingly, in some embodiments, a recombination template is also provided. A recombination template may be a component of another vector as described herein, contained in a separate vector, or provided as a separate polynucleotide. In some embodiments, a recombination template is designed to serve as a template in homologous recombination, such as within or near a target sequence nicked or cleaved by a CRISPR enzyme as a part of a CRISPR complex. […]

[4] = test system: MS2 RNA aptamer; conditions: cited from earlier work
[5] = test system: CXCR4, CACNAC1A; assay: repression by non-coding Alu loops in the sgRNA with dCas9, HEK293FT, qPCR; type: cell-based, human; conditions: in complex with dCas9
Experimental: The non-coding Alu RNA has previously been described as a transacting repressor interfering with RNA polymerase II in mammalian cells. In addition, a minimal loop required for repression has been identified (sciencedirect.com/science/article/pii/S1097276508000026). Applicants designed guides with different sites of incorporation of the truncated Alu loop (and in combination with PP7 loops). Sequences for these sgRNA backbones are listed below: […]
A total plasmid mass of 0.3 μg/well was transfected using 0.6 μL/well Lipofectamine 2000 (Life Technologies) according to the manufacturer's instructions. […] Relative RNA expression levels were quantified by reverse transcription and quantitative PCR (qPCR) using TaqMan qPCR probes (Life Technologies) and Fast Advanced Master Mix (Life Technologies). qPCR was carried out in 5 μL multiplexed reactions and 384-well format using the LightCycler 480 Instrument II. Data was analyzed by the ΔΔCt method: target Ct values (FAM dye) were normalized to GAPDH Ct values (VIC dye), and fold changes in target gene expression were determined by comparing to GFP-transfected experimental controls.

[6] = test system: human MYOD1; assay: MYOD1 activation in HEK293FT cells, qPCR; type: cell-based
Experimental: (§1) Human HEK293FT cells were maintained in high-glucose DMEM with GlutaMax and sodium pyruvate (Life Technologies) supplemented with 10% heat-inactivated characterized HyClone fetal bovine serum (Thermo Scientific) and 1% penicillin/streptomycin (Life Technologies). Cells were passaged daily at a ratio 1 to 2 or 1 to 2.5. For MS2/dCas9 activator experiments, 20,000 HEK293FT cells were plated in 100 μL of culture medium in poly-d-lysine coated 96-well plates (BD biosciences). […]
(§2) Total plasmid mass per well was 0.3 micrograms. […] Gene expression levels were quantified by using Taqman qPCR probes (Life technologies) and Fast Advanced Master Mix (Life Technologies). ASCL1 and MYOD1 expression levels were calculated relative to GAPDH expression level. Fold gene expression levels were determined by comparison to samples transfected with GFP plasmid only. […]
(§3) A total plasmid mass of 0.3 ug/well was transfected using 1.5 uL/well Lipofectamine 2000 (Life Technologies) according to the manufacturer's instructions. […] Relative RNA expression levels were quantified by reverse transcription and quantitative PCR (qPCR) using Taqman qPCR probes (Life technologies) and Fast Advanced Master Mix (Life Technologies). qPCR was carried out in 5 uL multiplexed reactions and 384-well format using the LightCycler 480 Instrument II. […]

[7] = test system: Neurog2; assay: Neurog2 upregulation in Neuro-2a cells, qRT-PCR; type: cell-based
Experimental: 120,000 cells were plated in each well of a 24-well plate 18-20 h before transfection. Cells were transfected with Lipofectamine transfection reagent (Life Technologies) according to the manufacturer's instructions.
RNA was extracted using the RNeasy kit (Qiagen) according to manufacturer's instructions and […] of RNA per sample was reverse-transcribed using qScript (Quanta Biosystems). Relative mRNA levels were measured by reverse transcription and quantitative PCR (qRT-PCR) using TaqMan probes specific for the targeted gene as well as GAPDH as an endogenous control (Life Technologies). ddCt analysis was used to obtain fold-changes relative to negative controls transfected with GFP only.
A minimal hairpin aptamer capable of binding to the bacteriophage coat protein MS2, which is known to be capable of binding MS2 through strong sequence- and structure-specific interactions in mammalian cells^18,19, to incorporate into tetraloop and stem-loop 2 (FIG. 27b) was chosen. Tests were performed to evaluate whether MS2-mediated recruitment of VP64 to the tetraloop and stem-loop 2 could mediate transcriptional up-regulation more efficiently than a dCas9-VP64 fusion alone. Aptamer-mediated recruitment of MS2-VP64 to either tetraloop (sgRNA 1.1) or stem-loop 2 (sgRNA 1.2) mediated 3- and 5-fold higher levels of Neurog2 up-regulation than a dCas9-VP64 fusion (sgRNA 1.0), respectively.

[8] = test system: human ASCL1; assay: ASCL1 activation in HEK293FT cells, qPCR; type: cell-based
Experimental: as §1, §2, §3

Molecule: 1,2-dilinoleyloxy-keto-N,N-dimethyl-3-aminopropane [DLinKDMA]
- gene silencing potency, rank order [1]: DLinKC2-DMA>DLinKDMA>DLinDMA>>DLinDAP

Molecule: CCCCC/C=C\C/C=C\CCCCCCCC(=O)OCC(CN(C)C)OC(=O)CCCCCCC/C=C\C/C=C\CCCCC (centres unmarked) [DLinDAP, 1,2-dilineoyl-3-dimethylammonium-propane]
- gene silencing potency, rank order [1]: DLinKC2-DMA>DLinKDMA>DLinDMA>>DLinDAP

Molecule: CCCCC/C=C\C/C=C\CCCCCCCCOCC(CN(C)C)OCCCCCCCC/C=C\C/C=C\CCCCC (centres unmarked) [DLinDMA, 1,2-dilinoleyloxy-3-N,N-dimethylaminopropane]
- gene silencing potency, rank order [1]: DLinKC2-DMA>DLinKDMA>DLinDMA>>DLinDAP

Molecule: CCCCC/C=C\C/C=C\CCCCCCCCC1(CCCCCCCC/C=C\C/C=C\CCCCC)OCC(CCN(C)C)O1 (centres unmarked) [DLinKC2-DMA, 1,2-dilinoleyl-4-(2-dimethylaminoethyl)-[1,3]-dioxolane]
- gene silencing potency, rank order [1]: DLinKC2-DMA>DLinKDMA>DLinDMA>>DLinDAP

Molecule: CCCS(=O)(=O)Nc1ccc(F)c(C(=O)c2c[nH]c3ncc(Cl)cc23)c1F [PLX4720]
- sensitivity of A375 cells, in words [2]: naturally sensitive

Molecule: H840A: Cas9 with the H840A mutation in the HNH domain
- indel formation, in words [3]: no indel formation is observed

Molecule: N55K mutant of the MS2 bacteriophage coat protein: MS2 variant, N55K mutant
- binding affinity, in words [4]: higher binding affinity than wild type MS2

B1: minimal non-coding Alu-loops at the tetraloop and stem-loop 2: sgRNA backbone with truncated Alu loop at tetraloop and stem-loop 2 (nucleic acid)
guide: GTTTTAGAGCTAGAGGCAGGAGAATGGCGTGAACCCGGGAGGTGGCCGAGATCGCTCCAGCCTGGGTGACAGAGCGAGACTCTGTCTCTAGCAAGTTAAAATAAGGCTAGTCCGTTATCAACTTGAGGCAGGAGAATGGCGTGAACCCGGGAGGTGGCCGAGATCGCTCCAGCCTGGGTGACAGAGCGAGACTCTGTCTCAAGTGGCACCGAGTCGGTGCTTTTTTT
- repression of target gene expression, in words [5]: able to repress target gene expression in complex with dCas9

B2: sgRNA 2.0: sgRNA scaffold in which the tetraloop and stem-loop 2 sequences have been replaced by an MS2 binding loop (nucleic acid)
guide: NNNNNNNNNNNNNNNNNNNNGUUUUAGAGCUAGGCCAACATGAGGATCACCCATGTCTGCAGGGCCUAGCAAGUUAAAAUAAGGCUA
modifications: /note=“Description of Combined DNA/RNA Molecule Synthetic oligonucleotide”; modified_base (1)..(20) a, c, t, g, unknown or other
- MYOD1 activation, comparison in words [6]: more potent than either of the 3′ MS2 sgRNA architectures
- levels of transcription activation relative to sgRNA+2×MS2 ([6]; MYOD1): 8.5 fold
- levels of Neurog2 up-regulation relative to a dCas9-VP64 fusion (sgRNA 1.0) ([7]; aptamer-mediated recruitment of MS2-VP64, with dCas9): 12 fold
- target gene upregulation (Neurog2), in words ([7]; with dCas9-vp64 and MS2-vp64, compared with regular guide and dCas9-vp64): much higher target gene upregulation compared to the previous design
- ASCL1 activation, comparison in words [8]: more potent than either of the 3′ MS2 sgRNA architectures
- levels of transcription activation relative to sgRNA+2×MS2 ([8]; ASCL1): 14 fold
